Measurements reported in US7758856B2, “Bacteriophage for the treatment of bacterial biofilms” (Biocontrol Limited, priority 2003, dated 2010).
Converted amounts (≈) assume the structure as drawn.

Key:
[1] = CF patients, nebulisation twice a day (tobramycin 80 mg; Colistin 2 mega units); cited from earlier work
[2] = tested on: Ps. aeruginosa GH56 biofilms; assay: In vitro biofilm model (chemostat and Robbins device, viable counts on PVC disks)
Ps. aeruginosa = assay: Minimal inhibition concentration of tobramycin; format: cell-based; conditions: Pseudomonas aeruginosa

MIC (Ps. aeruginosa) [µg/mL] | Molecule | serum levels [1] | effect on Ps. aeruginosa sessile (biofilm) population ([2]; four applications at MIC (4 mg L^-1), over 24 h / 48 h) | effect on biofilm viability / sessile population ([2]; tobramycin at 10xMIC, four applications)
4 (≈ 8.56 µM) | NC[C@H]1O[C@H](O[C@H]2[C@H](O)[C@@H](O[C@H]3O[C@H](CO)[C@@H](O)[C@H](N)[C@H]3O)[C@H](N)C[C@@H]2N)[C@H](N)C[C@@H]1O [tobramycin] | unmeasurable | no significant effect | no significant effect
 | Colistin | unmeasurable |  | 
